Several values for one entry are separate records, joined by “and”; a condition that tells them apart may be missing. Identical values can stand only once.
Assay: Hematological and hepatic parameters, 2-week repeated oral dosing
Type: in vivo
Settings: rats
[1] = RK-701 10 mg/kg for two weeks, individual animals 1-5, 10 mg/kg
[2] = RK-701 30 mg/kg for two weeks, individual animals 1-5, 30 mg/kg
[3] = RK-701 100 mg/kg for two weeks, individual animals 1-5, 100 mg/kg

Cc1c(C(=O)NC(CCC2CC2)C(=O)Nc2ccc(C#N)cc2)[nH]c2c1C(=O)CC(C)(C)C2 (stereo not shown) [RK-701]
ALB [1]: 3.3 g/dL and 3.6 g/dL and 3.5 g/dL and 3.9 g/dL | ALP [1]: 498 IU/L and 658 IU/L and 651 IU/L and 305 IU/L and 323 IU/L | ALT [1]: 35 IU/L and 24 IU/L and 23 IU/L and 29 IU/L and 31 IU/L | AST [1]: 65 IU/L and 68 IU/L and 63 IU/L and 58 IU/L | EOS [1]: 0.8 x 10^2 cells/μL and 0.5 x 10^2 cells/μL and 0.6 x 10^2 cells/μL | HCT [1]: 43.6% and 43.5% and 41.3% and 46.1% and 43.9% | HGB [1]: 15.1 g/dL and 14.9 g/dL and 14.2 g/dL and 16.2 g/dL and 15.2 g/dL | LUC [1]: 0.5 x 10^2 cells/μL and 0.3 x 10^2 cells/μL and 0.2 x 10^2 cells/μL and 0.6 x 10^2 cells/μL | Lymph [1]: 60.7 x 10^2 cells/μL and 48.8 x 10^2 cells/μL and 34.7 x 10^2 cells/μL and 52.6 x 10^2 cells/μL and 60.4 x 10^2 cells/μL | MCH [1]: 20.6 pg and 20.7 pg and 19.3 pg and 20.9 pg and 20.5 pg | MCHC [1]: 34.6 g/dL and 34.4 g/dL and 35.1 g/dL and 34.7 g/dL | MCV [1]: 59.5 fL and 60.2 fL and 56.2 fL and 59.6 fL and 59.1 fL | MONO [1]: 1 x 10^2 cells/μL and 0.9 x 10^2 cells/μL and 0.6 x 10^2 cells/μL and 1.2 x 10^2 cells/μL | NEUT [1]: 8.2 x 10^2 cells/μL and 4.4 x 10^2 cells/μL and 6.1 x 10^2 cells/μL and 5.2 x 10^2 cells/μL and 8.1 x 10^2 cells/μL | PL [1]: 141 mg/dL and 106 mg/dL and 124 mg/dL and 99 mg/dL and 133 mg/dL | PLT [1]: 127.6 x 10^4 cells/μL and 123.4 x 10^4 cells/μL and 117.1 x 10^4 cells/μL and 123.6 x 10^4 cells/μL and 146.5 x 10^4 cells/μL | RBC [1]: 732 x 10^4 cells/μL and 722 x 10^4 cells/μL and 735 x 10^4 cells/μL and 773 x 10^4 cells/μL and 743 x 10^4 cells/μL | Retic [1]: 223.8 x 10^9 cells/L and 153 x 10^9 cells/L and 208.3 x 10^9 cells/L and 171.7 x 10^9 cells/L and 194.5 x 10^9 cells/L | T-CHO [1]: 87 mg/dL and 57 mg/dL and 73 mg/dL and 64 mg/dL | TG [1]: 26 mg/dL and 11 mg/dL and 19 mg/dL and 14 mg/dL and 48 mg/dL | TP [1]: 5.8 g/dL and 6.1 g/dL and 5.9 g/dL and 6.4 g/dL | WBC [1]: 71.3 x 10^2 cells/μL and 55 x 10^2 cells/μL and 42.1 x 10^2 cells/μL and 59.6 x 10^2 cells/μL and 70.9 x 10^2 cells/μL | ALB [2]: 3.3 g/dL and 3.6 g/dL and 3.5 g/dL | ALP [2]: 418 IU/L and 310 IU/L and 628 IU/L and 586 IU/L and 615 IU/L | ALT [2]: 28 IU/L and 21 IU/L and 29 IU/L and 25 IU/L | AST [2]: 71 IU/L and 66 IU/L and 59 IU/L and 54 IU/L and 70 IU/L | EOS [2]: 0.4 x 10^2 cells/μL and 0.5 x 10^2 cells/μL and 0.7 x 10^2 cells/μL and 0.3 x 10^2 cells/μL | HCT [2]: 41.9% and 44.7% and 43.2% and 41.2% and 41.8% | HGB [2]: 13.9 g/dL and 15.2 g/dL and 14.7 g/dL and 14.2 g/dL and 14.4 g/dL | LUC [2]: 0.5 x 10^2 cells/μL and 0.2 x 10^2 cells/μL and 0.6 x 10^2 cells/μL and 0.4 x 10^2 cells/μL | Lymph [2]: 67.9 x 10^2 cells/μL and 38.8 x 10^2 cells/μL and 53.8 x 10^2 cells/μL and 52 x 10^2 cells/μL and 52.5 x 10^2 cells/μL | MCH [2]: 18.8 pg and 19.5 pg and 21.3 pg and 20.8 pg | MCHC [2]: 33.3 g/dL and 33.9 g/dL and 34.1 g/dL and 34.4 g/dL | MCV [2]: 56.4 fL and 57.4 fL and 62.5 fL and 56.7 fL and 60.3 fL | MONO [2]: 1 x 10^2 cells/μL and 0.8 x 10^2 cells/μL and 0.9 x 10^2 cells/μL | NEUT [2]: 5.1 x 10^2 cells/μL and 8.7 x 10^2 cells/μL and 4.3 x 10^2 cells/μL and 6.5 x 10^2 cells/μL and 8.9 x 10^2 cells/μL | PL [2]: 116 mg/dL and 127 mg/dL and 128 mg/dL and 100 mg/dL and 113 mg/dL | PLT [2]: 120.9 x 10^4 cells/μL and 129.5 x 10^4 cells/μL and 130.8 x 10^4 cells/μL and 134.3 x 10^4 cells/μL and 95.6 x 10^4 cells/μL | RBC [2]: 742 x 10^4 cells/μL and 779 x 10^4 cells/μL and 692 x 10^4 cells/μL and 726 x 10^4 cells/μL and 693 x 10^4 cells/μL | Retic [2]: 276.8 x 10^9 cells/L and 221.1 x 10^9 cells/L and 186.9 x 10^9 cells/L and 199.2 x 10^9 cells/L and 253.8 x 10^9 cells/L | T-CHO [2]: 63 mg/dL and 69 mg/dL and 62 mg/dL and 58 mg/dL and 68 mg/dL | TG [2]: 16 mg/dL and 19 mg/dL and 25 mg/dL and 12 mg/dL and 11 mg/dL | TP [2]: 5.7 g/dL and 6.1 g/dL and 6 g/dL and 5.8 g/dL | WBC [2]: 74.9 x 10^2 cells/μL and 49.1 x 10^2 cells/μL and 60.2 x 10^2 cells/μL and 60.7 x 10^2 cells/μL and 63.2 x 10^2 cells/μL | ALB [3]: 3.4 g/dL and 3.3 g/dL and 3.2 g/dL and 3.5 g/dL | ALP [3]: 450 IU/L and 547 IU/L and 566 IU/L and 866 IU/L and 399 IU/L | ALT [3]: 37 IU/L and 26 IU/L and 28 IU/L and 29 IU/L and 25 IU/L | AST [3]: 63 IU/L and 59 IU/L and 68 IU/L and 70 IU/L and 58 IU/L | EOS [3]: 0.3 x 10^2 cells/μL and 0.6 x 10^2 cells/μL and 0.8 x 10^2 cells/μL and 0.7 x 10^2 cells/μL | HCT [3]: 43.3% and 44.1% and 41.3% and 42.5% and 43.5% | HGB [3]: 14.8 g/dL and 15 g/dL and 14.4 g/dL and 14.6 g/dL | LUC [3]: 0.4 x 10^2 cells/μL and 0.5 x 10^2 cells/μL and 0.3 x 10^2 cells/μL and 0.9 x 10^2 cells/μL | Lymph [3]: 61.6 x 10^2 cells/μL and 55.7 x 10^2 cells/μL and 66.9 x 10^2 cells/μL and 49.9 x 10^2 cells/μL and 88.7 x 10^2 cells/μL | MCH [3]: 20.2 pg and 20.4 pg and 20.6 pg and 20.1 pg | MCHC [3]: 34.3 g/dL and 34 g/dL and 34.8 g/dL and 34.4 g/dL | MCV [3]: 59 fL and 60.2 fL and 59.1 fL and 58.3 fL and 58.6 fL | MONO [3]: 1.3 x 10^2 cells/μL and 0.7 x 10^2 cells/μL and 1.6 x 10^2 cells/μL and 1 x 10^2 cells/μL and 1.4 x 10^2 cells/μL | NEUT [3]: 7.8 x 10^2 cells/μL and 2.7 x 10^2 cells/μL and 9.7 x 10^2 cells/μL and 9.5 x 10^2 cells/μL and 9.3 x 10^2 cells/μL | PL [3]: 153 mg/dL and 118 mg/dL and 132 mg/dL and 110 mg/dL and 173 mg/dL | PLT [3]: 110.2 x 10^4 cells/μL and 121.4 x 10^4 cells/μL and 96 x 10^4 cells/μL and 122.9 x 10^4 cells/μL and 114.3 x 10^4 cells/μL | RBC [3]: 733 x 10^4 cells/μL and 700 x 10^4 cells/μL and 729 x 10^4 cells/μL and 744 x 10^4 cells/μL | Retic [3]: 130.2 x 10^9 cells/L and 149.9 x 10^9 cells/L and 250.7 x 10^9 cells/L and 185.7 x 10^9 cells/L and 177.3 x 10^9 cells/L | T-CHO [3]: 94 mg/dL and 67 mg/dL and 91 mg/dL and 72 mg/dL and 116 mg/dL | TG [3]: 26 mg/dL and 19 mg/dL and 9 mg/dL and 8 mg/dL and 32 mg/dL | TP [3]: 5.6 g/dL and 5.8 g/dL and 5.9 g/dL and 5.7 g/dL and 6.2 g/dL | WBC [3]: 71.5 x 10^2 cells/μL and 60.2 x 10^2 cells/μL and 79.6 x 10^2 cells/μL and 61.2 x 10^2 cells/μL and 101.3 x 10^2 cells/μL | effect on hematological and hepatic parameters (oral, up to 100 mg/kg, two weeks): no serious effect | ALB (two weeks, 10 mg/kg): 3.6 ± 0.2 g/dL | ALP (two weeks, 10 mg/kg): 487 ± 170 IU/L | ALT (two weeks, 10 mg/kg): 28 ± 5 IU/L | AST (two weeks, 10 mg/kg): 64 ± 4 IU/L | EOS (two weeks, 10 mg/kg): 0.6 ± 0.1 x 102 cells/μL | HCT (two weeks, 10 mg/kg): 43.7± 1.7% | HGB (two weeks, 10 mg/kg): 15.1 ± 0.7 g/dL | LUC (two weeks, 10 mg/kg): 0.4 ± 0.2 x 102 cells/μL | Lymph (two weeks, 10 mg/kg): 51.4 ± 10.7 x 102 cells/μL | MCH (two weeks, 10 mg/kg): 20.4 ± 0.6 pg | MCHC (two weeks, 10 mg/kg): 34.6 ± 0.3 g/dL | MCV (two weeks, 10 mg/kg): 58.9 ± 1.6 fL

— paper PMC9837035 (Nature Communications, 2023)
